Measurements from patent publication US20070027130A1, “Tricyclic 6-alkylidene-penem beta-lactamase inhibitors and beta-lactam antibiotic combination: a broad spectrum antibiotic” (priority 2005, published 2007).

Assays:
Experiment in all cases: β-Lactamase inhibition, nitrocefin spectrophotometric assay
[1] = molecular target: class A β-lactamase TEM-1 (Escherichia coli, UniProt P62593); assay type: biochemical, E. coli; details: nitrocefin 50 μg/ml; 10 min preincubation at 25° C.; pH 7.0
[2] = molecular target: class B enzyme CcrA (Bacteroides fragilis, UniProt P25910); assay type: biochemical; details: nitrocefin 50 μg/ml; 10 min preincubation at 25° C.; pH 7.0; read-out: IC50 Class-B Ccr
class B enzyme CcrA, sequence (P25910 19-249): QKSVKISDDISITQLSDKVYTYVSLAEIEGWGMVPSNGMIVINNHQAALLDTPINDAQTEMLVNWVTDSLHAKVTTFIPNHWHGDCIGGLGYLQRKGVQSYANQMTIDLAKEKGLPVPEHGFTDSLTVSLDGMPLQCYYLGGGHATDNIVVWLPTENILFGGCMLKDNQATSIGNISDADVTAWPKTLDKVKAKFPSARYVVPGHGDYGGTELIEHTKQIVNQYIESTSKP

[3] = molecular target: class C enzyme AmpC (Enterobacter cloacae, UniProt P05364); assay type: biochemical
class C enzyme AmpC, sequence (P05364 21-381): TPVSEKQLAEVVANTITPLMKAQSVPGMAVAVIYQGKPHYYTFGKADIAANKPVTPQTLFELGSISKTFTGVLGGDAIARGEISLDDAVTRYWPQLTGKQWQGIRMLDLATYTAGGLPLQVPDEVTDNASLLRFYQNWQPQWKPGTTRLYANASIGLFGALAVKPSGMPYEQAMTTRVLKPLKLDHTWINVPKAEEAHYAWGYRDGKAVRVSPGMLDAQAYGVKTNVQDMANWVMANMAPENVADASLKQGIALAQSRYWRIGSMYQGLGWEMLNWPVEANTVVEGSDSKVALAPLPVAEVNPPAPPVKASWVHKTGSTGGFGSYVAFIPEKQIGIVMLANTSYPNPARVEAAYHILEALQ

[4] = molecular target: class A β-lactamase Imi-1 (Enterobacter cloacae, UniProt Q46991)
class A β-lactamase Imi-1, sequence (Q46991 entry or part of it): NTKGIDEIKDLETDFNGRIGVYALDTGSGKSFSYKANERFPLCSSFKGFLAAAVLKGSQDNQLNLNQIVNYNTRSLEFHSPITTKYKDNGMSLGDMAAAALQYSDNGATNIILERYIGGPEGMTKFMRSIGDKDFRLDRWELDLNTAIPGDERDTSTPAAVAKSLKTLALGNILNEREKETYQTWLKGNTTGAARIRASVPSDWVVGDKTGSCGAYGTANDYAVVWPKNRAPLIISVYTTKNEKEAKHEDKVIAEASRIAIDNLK

class A β-lactamase TEM-1, sequence (P62593 24-286 limits assumed): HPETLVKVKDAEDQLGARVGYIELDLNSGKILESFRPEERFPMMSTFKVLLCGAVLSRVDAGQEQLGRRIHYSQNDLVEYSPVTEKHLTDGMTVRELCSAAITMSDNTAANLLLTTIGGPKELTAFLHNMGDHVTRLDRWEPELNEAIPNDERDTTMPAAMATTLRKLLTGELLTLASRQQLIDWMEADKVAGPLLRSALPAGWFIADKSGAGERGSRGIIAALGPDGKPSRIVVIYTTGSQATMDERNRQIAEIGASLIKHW

| SMILES | IC50 [1] [nM] | IC50 [2] [nM] | IC50 [3] [nM] | IC50 [4] [nM] |
| --- | --- | --- | --- | --- |
| O=C(O)C1=CS[C@@H]2/C(=C\c3cn4c5c(sc4n3)CCC5)C(=O)N12 [Compound 1, (5R),(6Z)-6-(6,7-dihydro-5H-cyclopenta[d]imidazo[2,1-b][1,3]thiazol-2-ylmethylene)-7-oxo-4-thia-1-azabicyclo[3.2.0]hept-2-ene-2-carboxylic acid] | 1.4 | 240 | 2.4 | – |
| O=C(O)C1=CS[C@@H]2/C(=C\c3cn4c5c(sc4n3)COCC5)C(=O)N12 [Compound 2, (5R),(6Z)-6-(5,8-dihydro-6H-imidazo[2,1-b]pyrano[4,3-d][1,3]thiazol-2-ylmethylene)-7-oxo-4-thia-1-azabicyclo[3.2.0]hept-2-ene-2-carboxylic acid] | 2.8 | 200 | 1.5 | 100 |
